Experiments:
Format in all cases: cell-based, dog
[1] = system: Aerobes; assay: Canine plate biofilm assay (PBA): bacterial viable counts, aerobes; conditions: 48 hours, extracts at 500 μg/ml unless otherwise stated, vs no active control
Description: (§1) The assay requires fresh supragingival canine dental plaque and saliva for inoculation. The inoculum consists of pooled dental plaque and unfiltered saliva sampled from a group of 14 dogs, varying in age, breed and oral health status.
(§2) The plaque and saliva were resuspended in artificial saliva to form the inoculum of approximately 15% plaque and 30% saliva.
(§3) The plate biofilm assay (PBA) utilises a 24 well plate format in which biofilms, representative of canine dental plaque, are grown on hydroxyapatite (HA) discs. Prior to being introduced to the 24 well assay plate, each HA disc is preconditioned for 2 hours in a solution of 50% filter sterilised canine saliva in artificial canine saliva. […] Each HA disc, with the exception of those being used for biomass quantification, is placed into 500 μl PBS and vortex mixed for 30 seconds to remove biofilm growth from the disc into solution. […] Biofilm-covered HA discs that are being used for biomass quantification are removed from the 24 well assay plate and used directly in the crystal violet assay.
(§4) Viable numbers of bacteria were quantified using Columbia blood agar plates supplemented with haemin and menadione. Aerobes were counted after incubation for 2 days and anaerobes, including black pigmenting colonies (BPC), were counted after incubation at appropriate conditions for 9 days. […]

[2] = system: anaerobes; assay: Canine plate biofilm assay (PBA): bacterial viable counts, anaerobes; conditions: 48 hours, extracts at 500 μg/ml unless otherwise stated, vs no active control
Description: as §1, §2, §3, §4

[3] = system: trypsin-like protease activity; assay: Canine plate biofilm assay (PBA): trypsin-like protease activity (liquid BAPNA assay); conditions: 48 hours, extracts at 500 μg/ml unless otherwise stated, vs no active control
Description: as §1, §2
as §3, with “saliva. The preconditioning step stimulates the formation of a salivary pellicle on the HA disc surface.” for “saliva.”
Trypsin-like protease activity was measured using the liquid BAPNA assay, a colourimetric assay in which the amount of trypsin present in a sample is directly proportional to the intensity of the colour developed. […]

[4] = system: biofilms representative of canine dental plaque; assay: Canine plate biofilm assay (PBA): biomass quantification (crystal violet assay); conditions: 48 hours, extracts at 500 μg/ml unless otherwise stated, OD595 vs no active control
Description: as §1, §2
as §3, with “saliva. The preconditioning step stimulates the formation of a salivary pellicle on the HA disc surface.” for “saliva.”
The total amount of biofilm grown on the HA discs was quantified using the crystal violet staining method. Biomass was represented as being directly proportional to the OD reading at 595 nm (0D595) of the samples compared to controls. […]

[5] = system: black pigmenting colonies (BPC); assay: Canine plate biofilm assay (PBA): bacterial viable counts, black pigmenting colonies; conditions: 48 hours, extracts at 500 μg/ml unless otherwise stated, vs no active control
Description: as §1, §2, §3, §4

[H]/N=C(\N/C(=N/[H])NCCCCCCNC(=N)NC(=N)Nc1ccc(Cl)cc1)Nc1ccc(Cl)cc1 [Chlorhexidine, chlorhexidine]
Aerobe (Log 10 reduction) [1]: 2.87 Log 10 | Anaerobe (Log 10 reduction) [2]: 2.48 Log 10 | Protease (% reduction) [3]: 95.76% | Biomass (% reduction) [4]: 94.40% | BPC (Log 10 reduction) [5]: 2.74 Log 10
